Data set [1] is described as follows: Protein binding (Table 14). Particulars: plasma.
The nature of a further data set: in vitro. To be noted: for fraction unbound at 4 h, 5 μM: mice plasma. The protocol: Mice plasma (BALB/c mice, male—pool of 3 animals) was collected in-house using K2EDTA as anticoagulant. […] Glipizide (Cat #50402G) was purchased from Apin chemicals, Abingdon, Oxon. Albendazole (Cat #A4673) was purchased from Sigma. Phosphate buffered saline pH 7.4 (0.1 M sodium phosphate and 0.15 M sodium chloride) and RED device inserts were procured from Thermo Scientific, Meridian Rd., Rockford, Ill.
Further 1 mM stock was diluted 200-fold in mice plasma to prepare a concentration of 5 μM. The final DMSO concentration in plasma was 0.5%.
Rapid equilibrium dialysis was performed with a rapid equilibrium dialysis (RED) device containing dialysis membrane with a molecular weight cut-off of 8,000 Daltons. Each dialysis insert contains two chambers. The red chamber is for plasma while the white chamber is for buffer. A 200 μL aliquot of warfarin or test compound at 5 μM (triplicates) was separately added to the plasma chamber and 350 μL of phosphate buffer saline (pH 7.4) was added to the buffer chamber of the inserts. After sealing the RED device with an adhesive film, dialysis was performed at 37° C. with shaking at 100 rpm for 4 hours as per manufacturer's recommendation.
Recovery and stability: A 50 μL aliquot of warfarin or test compound was added to four 0.5 mL microfuse tubes. Two aliquots were frozen immediately (0 minute sample). The other two aliquots were incubated at 37° C. for 4 hours along with the RED device.
Following dialysis, an aliquot of 50 μL was removed from each well (both plasma and buffer side) and diluted with equal volume of opposite matrix (dialyzed with the other matrix) to nullify the matrix effect. Similarly, 50 μL of buffer was added to recovery and stability samples. An aliquot of 100 μL was submitted for LC-MS/MS analysis.
A 25 μL aliquot of warfarin and test compounds were crashed with 100 μL of acetonitrile containing internal standard (glipizide for warfarin and test compound) and vortexed for 5 minutes. The samples were centrifuged at 15,000 rpm at 4° C. for 10 min and 100 μL of supernatant was submitted for LCMS/MS analysis. Samples were monitored for parent compound in MRM mode using LC-MS/MS.

A further data set relates to P. falciparum D6. The data set is described as follows: P. falciparum D6 assay. To be noted: Plasmodium falciparum; strain D6. In kind it is cell-based.
Data set [2] deals with endocytosis of transferrin. The data set is described as follows: Receptor-mediated endocytosis of transferrin in the trypanosome. It is filed as cell-based, T. brucei.
Data set [3] is described as follows: Thermodynamic aqueous solubility. It is filed as physicochemical.
A further data set can be described thus: logD. In kind it is physicochemical.
The test system of another data set is T. brucei brucei CA427. The data set is described as follows: Drug efficacy in a mouse model of human African trypanosomiasis. From the text:
(§1) The kinetoplast and nucleus can be tracked by microscopy during the cell cycle, which begins with trypanosomes harboring one nucleus (1N) and one kinetoplast (1K) (i.e., 1K1N cells). A kinetoplast that is replicating its (DNA) (i.e., kDNA) and increasing the organelle's mass is observed as an elongated kinetoplast (1Ke). Fission (segregation) of 1Ke kinetoplasts into two daughter kinetoplasts (2K) inside the same cell is coincident with the nuclear S-phase and produces 2K1N trypanosomes. Mitosis then occurs, yielding trypanosomes containing two kinetoplasts and two nuclei (2K2N). Following cell division, each daughter trypanosome has a 1K1N configuration of the organelles.
Swiss Webster (female) mice, aged 8-10 weeks, were intraperitoneally inoculated with 10^3 T. brucei CA427 strain using a 1 ml hypodermic syringe and 26G ½″ needle (day 0). The mice were assigned to control or NEU617 -treated groups (four per group). Treatment was initiated one-day post infection for two weeks. Control group received the vehicle only. Drug-treated mice were given 10 mg/kg NEU617 twice daily at 12 h interval (orally or intraperitoneally) based on their body weights. NEU617 was reconstituted in (i) DMSO for intraperitoneal (I.P.) administration, and (ii) N-methyl-2-pyrrolidone and polyethylene glycol 300 (1:9, v/v) for oral (P.O.) dosing. Drugs were prepared fresh daily and the concentration was adjusted so that the animals received <200 μl of solvent/dose/animal. […] Further dilutions of blood were made with bicine-buffered saline with glucose, as needed. Animals showing distress symptoms at any stage of the study were euthanized. All experiments were conducted following protocols approved by the Institutional Animal Care and Use Committee (IACUC).

The conditions of data set [4]: male.
For a further data set, the system named is T. brucei. The experiment in a line: Trypanosome DNA content and organelle (cell cycle) analysis. In kind it is cell-based.
Source text: as §1

The test system of a further data set is L. major amastigote. The experiment in a line: L. major amastigote assay. To be noted: Leishmania major. In kind it is cell-based.

For the compound `Fc1cccc(COc2ccc(Nc3ncnc4ccc(-c5cccc(N6CCOCC6)c5)cc34)cc2Cl)c1` [Compound 23a, N-(3-Chloro-4-((3-fluorobenzyl)oxy)phenyl)-6-(3-morpholinophenyl)quinazolin-4-amine], the “Human liver microsomes median CLint” value worked out at 63.03 µL/min/mg. For the same compound, in [1], the fraction unbound was under 0.01. In addition, the recovery at 4 h, 5 μM in the data set “in vitro” (male, BALB/c, mouse, pH 7.4) stood at 100%. For the same compound, the “% Bound Mean (SD)” value in “in vitro” (male, BALB/c, mouse, plasma, pH 7.4) is reported as 99.6%. The compound also had a fraction unbound at 4 h, 5 μM in the data set “in vitro” (male, BALB/c, mouse, plasma, pH 7.4, % Bound R1, replicate 1, 37° C.) of 0.005. Besides, the unbound share (fraction unbound) at 4 h, 5 μM in the data set “in vitro” (male, BALB/c, mouse, plasma, pH 7.4, % Bound R2, replicate 2, 37° C.) is 0.003. For the same compound, the “% compound remaining at 4 h” value in the data set “in vitro” (plasma stability, 37° C.) is reported as 85%. The same compound showed an EC50 in the data set with P. falciparum D6 of 0.23 µM. Also, in data set [2], the “effect on endocytosis of transferrin” value is given as “no effect”. In addition, in data set [3], the Solubility is under 1 µM. This compound returned a logD in the data set “logD” of 3.2. For the same compound, the “delay of detection of trypanosomes in the blood” value in the data set on T. brucei brucei CA427 (10 mg/kg twice per day ip) turned out to be 24 h. The “survival on day 8” value with T. brucei brucei CA427 (10 mg/kg twice per day ip, all untreated mice had died) is recorded as “all alive”. In the data set on T. brucei brucei CA427 (10 mg/kg twice per day ip, control group 5 days), the “mouse survival life span” value is on record as 9 days. The “time without parasites detected in the blood of infected mice” value in the data set on T. brucei brucei CA427 (40 mg/kg once per day from 24 h after infection, control positive on day 2) is 3 days. Further, in the data set on T. brucei brucei CA427 (multiday regimen at 40 mg/kg), the drug-related toxicity entry is reported as “drug-related toxicity was observed”. In addition, the “Male rat hepatocytes median CLint” value in data set [4] is recorded as 44.5 μl/min/1E6 cells. Moreover, in the data set with T. brucei, the “effect on kinetoplast, nucleus and cytokinesis (single cell microscopy)” value is “blocks duplication of the kinetoplast and arrests cytokinesis without inhibiting division of the trypanosome nucleus”. For the same compound, the “proportion of cells with 4C DNA” value with T. brucei (7 h incubation, 25% without drug) is listed as 40%. Further, the “fraction of cells with 2C-4C equivalents of DNA” value in the data set with T. brucei (7 h incubation, 40% without drug) turned out to be 25%. The compound further registered an EC50 in the data set with L. major amastigote of 8 µM.

For the origin of these results see patent publication US20150259331A1, “PROTOZOAN PARASITE GROWTH INHIBITORS” (Northeastern University, priority 2014, published 2015).
